Laboratory results as given in US20030087395A1, “Cardiotrophin-like cytokine” (Human Genome Sciences, Inc., priority 1997, published 2003).

Assays:
M1 cells [1] = test: Protein tyrosine phosphorylation after anti-gp130 immunoprecipitation; assay type: cell-based; settings: M1 cells treated with CLC or LIF supernatant; band of apparent molecular mass 32 kDa
Protocol: Because of the wide range of known factors capable of stimulating tyrosine kinase activity, identifying whether CLC or a molecule induced by CLC is capable of activating tyrosine kinase signal transduction pathways is of interest. Therefore, the following protocol is designed to identify such molecules capable of activating the tyrosine kinase signal transduction pathways.
Seed NIH-3T3 cells in 15 cm^2 cell culture plates in DMEM supplemented with Pen/Strep, 10% FBS, 25 mM Hepes. […] At the point the experiment begins, the cells should be 80-90% confluent. Collect M1 cells in 50 ml tube and centrifuge 1000 rpm for 5 min. Resuspend the cell pellet in “quiescing medium” which is RPMI supplemented with Pen/Strep, glutamine. (It is important to note that quiescing medium contains neither serum nor growth factors.) Centrifuge again at 1000 rpm for 5 min to wash the cells. Again, resuspend the cells in quiescing medium. Incubate the M1 cells in quiescing medium for 16 hours at 37° C.
Pre-warm quiescing medium (for Ml cells) and a metal tube rack to 37° C. Pre-cool quiescing media (for NIH-3T3 cells) and sterile Eppendorf tubes containing 0.5 ml of sample. […] Resuspend M1 cells to 5.0×10^7 cells per 0.5 ml quiescing media. Place all tubes on per warmed metal rack and leave at 37° C. until ready to begin. Add samples to these pre-aliquoted tubes. […]

M1 cells [2] = test: M1 cell proliferation by BrdU incorporation; assay type: cell-based; settings: dose of 100 μL, 72 hours
Protocol: The effect of CLC on cellular proliferation can be assayed in M1 cells by BrdU incorporation. 1×10^4 cells/100 μL are dispensed into 96-well cell culture plates and labeled with 10 μL BrdU. CLC is added to the cells at several doses (0, 5, 25, and 100 μL) and LIF is added to the cells as a positive control at a dose of 100 μL. The cells are allowed to grow for 72 hours at 37° C. The amount of BrdU incorporation is determined by the Cell Proliferation ELISA BrdU colorimetric kit (Boehringer Mannheim).

STATS = settings: numbers of the STATs activated; adapted from Schidler and Darnell review; cited from earlier work
GAS or ISRE = settings: element bound; adapted from Schidler and Darnell review; cited from earlier work
Jurkat T-cells = test: Jurkat:GAS-SEAP screening assay for T-cell activity; assay type: cell-based; settings: 100 Unit/ml, typically observed
Protocol: The following protocol is used to assess T-cell activity of CLC by determining whether CLC supernatant proliferates and/or differentiates T-cells. T-cell activity is assessed using the GAS/SEAP/Neo construct produced in Example 6. Thus, factors that increase SEAP activity indicate the ability to activate the Jaks-STATs signal transduction pathway. The T-cell used in this assay is Jurkat T-cells (ATCC Accession No. TIB-152), although Molt-3 cells (ATCC Accession No. CRL-1552) and Molt-4 cells (ATCC Accession No. CRL-1582) cells can also be used.
Jurkat T-cells are lymphoblastic CD4+ Th1 helper cells. In order to generate stable cell lines, approximately 2 million Jurkat cells are transfected with the GAS-SEAP/neo vector using DMRIE-C (Life Technologies; transfection procedure described below). The transfected cells are seeded to a density of approximately 20,000 cells per well and transfectants resistant to 1 mg/ml geneticin selected. Resistant colonies are expanded and then tested for their response to increasing concentrations of interferon gamma.
Specifically, the following protocol will yield sufficient cells for 75 wells containing 200 μl of cells. Thus, it is either scaled up, or performed in multiple to generate sufficient cells for multiple 96 well plates. Jurkat cells are maintained in RPMI+10% serum with 1% Pen-Strep. […]

U937 cells = test: GAS-SEAP/U937 assay identifying myeloid activity; assay type: cell-based; settings: 100 Unit/ml; U937 GAS-SEAP; typically observed
Protocol: The following protocol is used to assess myeloid activity of CLC by determining whether CLC proliferates and/or differentiates myeloid cells. Myeloid cell activity is assessed using the GAS/SEAP/Neo construct produced in Example 6. Thus, factors that increase SEAP activity indicate the ability to activate the Jaks-STATS signal transduction pathway. The myeloid cell used in this assay is U937, a pre-monocyte cell line, although TF-1, HL60, or KG1 can be used.
To transiently transfect U937 cells with the GAS/SEAP/Neo construct produced in Example 6, a DEAE-Dextran method (Kharbanda, et. al., Cell Growth & Differentiation 5:259-265 (1994)) is used. First, harvest 2×10^7 U937 cells and wash with PBS. The U937 cells are usually grown in RPMI 1640 medium containing 10% heat-inactivated fetal bovine serum (FBS) supplemented with 100 units/ml penicillin and […] streptomycin.
Next, suspend the cells in 1 ml of 20 mM Tris-HCl (pH 7.4) buffer containing 0.5 mg/ml DEAE-Dextran, 8 ug GAS-SEAP2 plasmid DNA, 140 mM NaCl, 5 mM KCl, 375 μM Na2HPO47H2O, […], and 675 μM CaCl2. Incubate at 37° C. for 45 min.
Wash the cells with RPMI 1640 medium containing 10% FBS and then resuspend in 10 ml complete medium and incubate at 37° C. for 36 hr.
The GAS-SEAP/U937 stable cells are obtained by growing the cells in 400 μg/ml G418. […]

Row | Substance | band of tyrosine-phosphorylated protein in cell extracts (M1 cells [1]) | inhibition of M1 cell proliferation with respect to the negative control (M1 cells [2]) | STATS (STATS) | GAS or ISRE (GAS or ISRE) | induction of SEAP in positive control wells (Jurkat T-cells) | induction of SEAP in positive control wells (U937 cells)
1 | LIF: leukemia inhibitory factor, IL-6 family cytokine used as positive control for CLC [reference compound] | produced a band of phosphorylated protein | 4.8 fold | 1,3 | – | – | –
2 | interferon gamma: positive control known to activate Jurkat T cells and U937 cells [reference compound] | – | – | 1 | GAS | Over 30 fold | Over 30 fold
